The source of these data is PMC11953309 (Nature Communications, 2025).

The test has as its system IBD mouse fecal-derived ex vivo microbial community. The experiment in a line: Ex vivo screening on IBD mouse fecal-derived microbial community. The class given is cell-based, IL-10-deficient C57BL/6N mouse.

Consider `CN[C@H](CC(C)C)C(=O)N[C@H]1C(=O)N[C@@H](CC(N)=O)C(=O)N[C@H]2C(=O)N[C@H]3C(=O)N[C@H](C(=O)N[C@H](C(=O)O)c4cc(O)cc(O)c4-c4cc3ccc4O)[C@H](O)c3ccc(c(Cl)c3)Oc3cc2cc(c3O[C@@H]2O[C@H](CO)[C@@H](O)[C@H](O)[C@H]2O[C@H]2C[C@](C)(N)[C@H](O)[C@H](C)O2)Oc2ccc(cc2Cl)[C@H]1O` [vancomycin], for which the “Number of differentially abundant species” value (10 μg/mL, 48 h anaerobic, mGAM, MaAsLin2 vs blank, FDR-adjusted p < 0.05, n = 3) amounted to 73. Also, the “beta diversity (PCoA, Bray-Curtis) clustering vs blank” value (AIPs 10 μg/mL, vancomycin 1 μg/mL and 10 μg/mL, 48 h) is “notable differences”.
